IC50 data for 23 molecules are collected here from patent US6319915A, “Benzazepine derivatives as inhibitors of hyperproliferation diseases” (Pfizer Inc., priority 2000, dated 2001).

This test concerns the target T1, VEGF/GAG (glycosaminoglycan) (Homo sapiens, UniProt P15692).
T1 construct: purchased Repligen, Inc
T1 sequence (P15692 1-191 isoform P15692-4): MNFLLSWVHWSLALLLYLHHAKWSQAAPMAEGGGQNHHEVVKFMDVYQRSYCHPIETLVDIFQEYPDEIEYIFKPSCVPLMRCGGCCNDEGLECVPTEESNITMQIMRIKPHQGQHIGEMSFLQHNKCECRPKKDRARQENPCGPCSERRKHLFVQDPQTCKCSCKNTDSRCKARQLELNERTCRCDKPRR
Description: in vitro inhibition of VEGF/GAG (glycosaminoglycan) binding ([125I]heparin-16-mer / VEGF165 filter binding). The settings on record: purified VEGF165 20 nM, 60 minutes at room temperature, 0.16% DMSO. As for the experimental part: The in vitro activity of the compounds of formula I in inhibiting VEGF/GAG (glycosaminoglycan) binding may be measured using the assay described in U.S. Pat. No. 5,795,860, the subject matter of which is incorporated herein by reference.
Using mixed cellulose ester 96-well filter plates, 150 μL of Dulbeccos PBS (phosphate buffered saline) containing 10% ovalbumin is added. Compound (5.0 μL) is added at a final concentration of […]. Compounds are dissolved in 8% DMSO (final DMSO concentration is 0.16%) and tested at concentrations of 32, 10, 3.2, 1.0, 0.32 and 0.10 μM. A mixture of [^125 I]heparin-16-mer (4500 cpm per well), purified VEGF165 (20 nM final concentration/well, prepared by Repligen, Inc.) and Dulbeccos PBS with 10% ovalbumin is added to the 96-well plate in a volume of 100 μL. Nonspecific binding is defined using 10 μM heparin-sodium from porcine intestinal mucosa. The assay plate is incubated for 60 minutes at room temperature, filtered using a Millipore filtration apparatus, the plastic bottom plate is removed and the filter plate is allowed to completely dry. The plate bottom is sealed with plastic plate seal and 25 μL of scintillation cocktail is added to each well. The top plate is sealed and is counted for radioactivity on a Microbeta Scintillation Counter. The assay is run in a final volume of 250 μL.
The molecule `Cc1ccccc1C1CC(NC(=O)Nc2cccc(C(=O)Nc3nnc(C(F)(F)F)s3)c2)C(=O)N(CC(=O)NC(C)(C)C)C(c2ccccc2)C1` (centres unmarked) [3-{3-[1-(tert-Butylcarbamoyl-methyl)-2-oxo-7-phenyl-5-o-tolyl-azepan-3-yl]-ureido}-N-(5-trifluoromethyl-[1,3,4]thiadiazol-2-yl)-benzamide] came in with an IC50 of 8600 nM. For `Cc1ccccc1C1CC(NC(=O)Nc2cccc(C(=O)NS(=O)(=O)c3ccccc3)c2)C(=O)N(CC(=O)NC(C)(C)C)C(c2ccccc2)C1` (centres unmarked) [2-{3-[3-(3-Benzenesulfonylaminocarbonyl-phenyl)-ureido]-2-oxo-7-phenyl-5-o-tolyl-azepan-1-yl}-N-tert-butyl-acetamide] the value was 1400 nM; for `COc1ccccc1C1CC(NC(=O)Nc2cccc(C(=O)Nc3nnn[nH]3)c2)C(=O)N(CC(=O)NC(C)(C)C)C(c2ccccc2)C1` (centres unmarked) [3-{3-[1-(tert-Butylcarbamoyl-methyl)-5-(2-methoxy-phenyl)-2-oxo-7-phenyl-azepan-3-yl]-ureido}-N-(1H-tetrazol-5-yl)-benzamide], 1700 nM. The result for `Cc1ccccc1C1CC(NC(=O)Nc2cccc(C(=O)NS(=O)(=O)C(F)(F)F)c2)C(=O)N(CC(=O)NC2(C)CCCCC2)C(c2ccccc2)C1` (centres unmarked) [N-(1-Methyl-cyclohexyl)-2-{2-oxo-7-phenyl-5-o-tolyl-3-[3-(3-trifluoromethanesulfonylaminocarbonyl-phenyl)-ureido]-azepan-1-yl}-acetamide] reads 1700 nM; that for `COc1ccccc1C1CC(NC(=O)Nc2cccc(C(=O)NS(C)(=O)=O)c2)C(=O)N(CC(=O)NC(C)(C)C)C(c2ccccc2)C1` (centres unmarked) [N-tert-Butyl-2-[3-[3-(3-methanesulfonylaminocarbonyl-phenyl)-ureido]-5-(2-methoxy-phenyl)-2-oxo-7-phenyl-azepan-1-yl]-acetamide], 5800 nM.

In turn, `CC1(C)CCCC(C)(C)N1C(=O)CN1C(=O)C(NC(=O)Nc2cccc(-c3nnn[nH]3)c2)COc2cc(F)ccc21` (centres unmarked) [1-{3-Fluoro-8-oxo-9-[2-oxo-2-(2,2,6,6-tetramethyl-piperidin-1-yl)-ethyl]-6,7,8,9-tetrahydro-5-oxa-9-aza-benzocyclohepten-7-yl}-3-[3-(1H-tetrazol-5-yl)-phenyl]-urea] had a half-maximal inhibitory concentration (IC50) of 1700 nM. For `CC1(C)CN(C(=O)CN2C(=O)C(NC(=O)Nc3cccc(-c4nnn[nH]4)c3)COc3cc(F)ccc32)CC(C)(C)C1` (centres unmarked) [1-{3-Fluoro-8-oxo-9-[2-oxo-2-(3,3,5,5-tetramethyl-piperidin-1-yl)-ethyl]-6,7,8,9-tetrahydro-5-oxa-9-aza-benzocyclohepten-7-yl}-3-[3-(1H-tetrazol-5-yl)-phenyl]-urea] the value was 3700 nM; for `Cc1ccc2c(c1)N(CC(=O)NC(C)(C)C)C(=O)C(NC(=O)Nc1cccc(-c3nnn[nH]3)c1)CC2C1CCCCC1` (centres unmarked) [N-tert-Butyl-2-(5-cyclohexyl-8-methyl-2-oxo-3-{3-[3-(1H-tetrazol-5-yl)-phenyl]-ureido}-2,3,4,5-tetrahydro-benzo[b]azepin-1-yl)-acetamide], 4300 nM. For `CC1(C)CN(C(=O)CN2C(=O)C(NC(=O)Nc3cccc(-c4nnn[nH]4)c3)CSc3ccccc32)CC(C)(C)C1` (centres unmarked) [1-{4-Oxo-5-[2-oxo-2-(3,3,5,5-tetramethyl-piperidin-1-yl)-ethyl]-2,3,4,5-tetrahydro-benzo[b][1,4]thiazepin-3-yl}-3-[3-(1H-tetrazol-5-yl)-phenyl]-urea] the value was 6700 nM. Take `COc1ccccc1C1CC(NC(=O)Nc2cccc(-c3nnn[nH]3)c2)C(=O)N(CC(=O)NC(C)(C)C)C(c2ccccc2)C1` (centres unmarked) [N-tert-Butyl-2-(5-(2-methoxy-phenyl)-2-oxo-7-phenyl-3-{3-[3-(1H-tetrazol-5-yl)-phenyl]-ureido}-azepan-1-yl)-acetamide]: the IC50 came to 700 nM.

For the molecule `Cc1ccccc1C1CC(NC(=O)Nc2cccc(-c3nnn[nH]3)c2)C(=O)N(CC(=O)NC(C)(C)C)C(c2ccccc2)C1` (centres unmarked) [N-tert-Butyl-2-(2-oxo-7-phenyl-3-{3-[3-(1H-tetrazol-5-yl)-phenyl]-ureido}-5-o-tolyl-azepan-1-yl)-acetamide], the IC50 came to 3700 nM.

`COc1ccccc1C1CC(NC(=O)Nc2cccc(C(=O)Nc3nnn[nH]3)c2)C(=O)N(CC(=O)NC2(C)CCCCC2)C(c2ccccc2)C1` (centres unmarked) [3-(3-{5-(2-Methoxy-phenyl)-1-[(1-methyl-cyclohexylcarbamoyl)-methyl]-2-oxo-7-phenyl-azepan-3-yl}-ureido)-N-(1H-tetrazol-5-yl)-benzamide] returned an IC50 of 900 nM. The result for `Cc1ccccc1C1CC(NC(=O)Nc2ccc3[nH]nnc3c2)C(=O)N(CC(=O)NC(C)(C)C)C(c2ccccc2)C1` (centres unmarked) [2-{3-[3-(1H-Benzotriazol-5-yl)-ureido]-2-oxo-7-phenyl-5-o-tolyl-azepan-1-yl}-N-tert-butyl-acetamide] reads 1600 nM; that for `Cc1ccccc1C1CC(NC(=O)Nc2cccc(-c3nnn[nH]3)c2)C(=O)N(CC(=O)NC2(C)CCCCC2)C(c2ccccc2)C1` (centres unmarked) [N-(1-Methyl-cyclohexyl)-2-(2-oxo-7-phenyl-3-{3-[3-(1H-tetrazol-5-yl)-phenyl]-ureido}-5-o-tolyl-azepan-1-yl)-acetamide], 2000 nM; that for `Cc1ccccc1C1CC(NC(=O)Nc2cccc(C(=O)O)c2)C(=O)N(CC(=O)NC(C)(C)C)C(c2ccccc2)C1` (centres unmarked) [3-{3-[1-(tert-Butylcarbamoyl-methyl)-2-oxo-7-phenyl-5-o-tolyl-azepan-3-yl]-ureido}-benzoic acid], 20000 nM. With `Cc1ccccc1C1CC(NC(=O)Nc2cccc(C(=O)Nc3nnn[nH]3)c2)C(=O)N(CC(=O)NC2(C)CCCCC2)C(c2ccccc2)C1` (centres unmarked) [3-(3-{1-[(1-Methyl-cyclohexylcarbamoyl)-methyl]-2-oxo-7-phenyl-5-o-tolyl-azepan-3-yl}-ureido)-N-(1H-tetrazol-5-yl)-benzamide], the IC50 amounted to 2300 nM. As to `Cc1cccc(NC(=O)NC2CC(c3ccccc3C)CC(c3ccccc3)N(CC(=O)O)C2=O)c1` (centres unmarked) [[2-Oxo-7-phenyl-5-o-tolyl-3-(3-m-tolyl-ureido)-azepan-1-yl]-acetic acid], the IC50 is 2400 nM.

The molecule `Cc1ccc2c(c1)N(CC(=O)NC(C)(C)C)C(=O)C(NC(=O)Nc1cccc(C(=O)O)c1)CC2c1ccccc1` (centres unmarked) [3-{3-[1-(tert-Butylcarbamoyl-methyl)-8-methyl-2-oxo-5-phenyl-2,3,4,5-tetrahydro-1H-benzo[b]azepin-3-yl]-ureido}-benzoic acid] returned an IC50 of 9800 nM. As to `COc1ccccc1C1CC(NC(=O)Nc2cccc(C(=O)O)c2)C(=O)N(CC(=O)NC(C)(C)C)C(c2ccccc2)C1` (centres unmarked) [3-{3-[1-(tert-Butylcarbamoyl-methyl)-5-(2-methoxy-phenyl)-2-oxo-7-phenyl-azepan-3-yl]-ureido}-benzoic acid], the IC50 amounted to 4300 nM. `Cc1ccccc1C1CC(NC(=O)Nc2cccc(C(=O)NS(=O)(=O)Cc3ccccc3)c2)C(=O)N(CC(=O)NC(C)(C)C)C(c2ccccc2)C1` (centres unmarked) [N-tert-Butyl-2-{2-oxo-7-phenyl-3-[3-(3-phenylmethanesulfonylaminocarbonyl-phenyl)-ureido]-5-o-tolyl-azepan-1-yl}-acetamide] displayed an IC50 of 2400 nM.

For the molecule `COc1ccccc1C1CC(NC(=O)Nc2cccc(C(=O)NS(C)(=O)=O)c2)C(=O)N(CC(=O)NC2(C)CCCCC2)C(c2ccccc2)C1` (centres unmarked) [2-[3-[3-(3-Methanesulfonylaminocarbonyl-phenyl)-ureido]-5-(2-methoxy-phenyl)-2-oxo-7-phenyl-azepan-1-yl]-N-(1-methyl-cyclohexyl)-acetamide], the IC50 stood at 3000 nM. The result for `Cc1ccc2c(c1)N(CC(=O)NC(C)(C)C)C(=O)C(NC(=O)Nc1cccc(C(=O)NS(C)(=O)=O)c1)CC2c1ccccc1` (centres unmarked) [N-tert-Butyl-2-{3-[3-(3-methanesulfonylaminocarbonyl-phenyl)-ureido]-8-methyl-2-oxo-5-phenyl-2,3,4,5-tetrahydro-benzo[b]azepin-1-yl}-acetamide] reads 11000 nM. For `COc1ccccc1C1CC(NC(=O)Nc2cccc(-c3nnn[nH]3)c2)C(=O)N(CC(=O)NC2(C)CCCCC2)C(c2ccccc2)C1` (centres unmarked) [2-(5-(2-Methoxy-phenyl)-2-oxo-7-phenyl-3-{3-[3-(1H-tetrazol-5-yl)-phenyl]-ureido}-azepan-1-yl)-N-(1-methyl-cyclohexyl)-acetamide] the value was 1900 nM.
